Paper PMC7895462 (Neurochemical research, 2017)

Columns and labels:
[1] = system: 60 Hz corneal kindled seizures
[2] = system: MES-induced seizures; test: Maximal electroshock; assay type: in vivo
[3] = system: psychomotor seizures induced by 6 Hz 44 mA corneal stimulus; test: 6 Hz 44 mA mouse test; assay type: in vivo; settings: 6 Hz 44 mA
[4] = system: MES-induced seizures; test: Maximal electroshock; assay type: in vivo; remark: listed apart in the source
[5] = Minimal motor impairment
[6] = Open field activity monitor of rats; assay type: in vivo; settings: rat; i.p.; 45 and 60 mg/kg; 10 min; vs vehicle
[7] = 30 mg/kg (n = 2 mice) and 40 mg/kg (n = 1 mouse)
[8] = i.p., 0.5 and 2 h, default doses 30, 100, 300 mg/kg
[9] = p.o., 0.5 and 2 h, default doses 30, 100, 300 mg/kg

Clc1cccc(N2CCNCC2)c1 [m-CPP, meta-chlorophenylpiperazine]
protected in the corneal kindled mouse ([1]; 20 mg/kg, i.p., 15 min prior to testing): 0/8
protection in the corneal kindled mouse [1, 7]: lack of protection
adverse side effects in corneal kindled mice ([1]; at the highest doses tested): severe adverse side effects, including splaying, tremors, and mortality following seizure
Mouse CKM (I.P.) ID ([1]; i.p.): −
Mouse I.P identification MES [2, 8]: −
Mouse I.P. quantification MES (ED50) ([2]; i.p., at time of peak effect): >60 mg/kg
protective index (PI), i.p., MES test ([2]; mouse, i.p.): less than 1.0
Mouse P.O. identification MES [2, 9]: −
mice protected in the MES test ([2]; screening, at 10 and 30 mg/kg): one out of four
Mouse I.P identification 44 mA [3, 8]: −
Mouse I.P. quantification 44 mA (ED50) ([3]; i.p., at time of peak effect): >55 mg/kg
Mouse P.O. identification 44 mA [3, 9]: −
Rat I.P. identification MES ([4]; i.p.): +
Rat I.P. quantification MES (ED50) ([4]; i.p.): 37.1 mg/kg
Rat P.O. identification MES ([4]; p.o.): +
Rat I.P. identification TOX ([5]; i.p.): −
Rat I.P. quantification TOX (TD50) ([5]; i.p.): <10 mg/kg
Rat P.O. identification TOX ([5]; p.o.): −
total distance travelled in the open field [6]: significant, dose-dependent reduction
MMI in corneal kindled mice [7]: significant MMI in all animals tested
mice with significant MMI on the rotarod assay (corneal kindled mice, 20 mg/kg, i.p., 15 min): 3/8
Mouse I.P identification TOX [8]: +
Mouse I.P. quantification TOX (TD50) (i.p., rotorod): 52.6 mg/kg
Mouse P.O. identification TOX [9]: −
